According to a melting point compilation (Tetko et al.; mined from patent text by program, amines drawn as free bases though some values may be those of a salt):

Row | Structure (SMILES) | melting point [°C]
1 | O=C(NCC1Cc2cc(Cl)c3ccccc3c2O1)OCc1ccccc1 (centres undefined) | 117 to 119
2 | CC(C)OP(=O)(COCCOc1nc(N)nc(N)c1C=O)OC(C)C | 225 to 227
3 | CN1CCC(c2nn(-c3ccc(N)cc3)c3ccccc23)CC1 | 116 to 118
4 | COC(=O)CN(CCN(CCN(CC(=O)OC)S(=O)(=O)c1ccc(C)cc1)S(=O)(=O)c1ccc(C)cc1)S(=O)(=O)c1ccc(C)cc1 | 141 to 142
5 | Cc1nc(NC(=O)N(C)C)nc(C)c1Cl | 127 to 129
6 | C[C@H](NC(=O)OCc1ccccc1)C(=O)N[C@@H](C)C(=O)Nc1ccccc1 | 219 to 221
7 | Clc1cc(Cl)cc(N=Cc2ccccc2)c1 | 52 to 53
8 | Cc1[nH]c(C(C)(C)C)nc1CO | 196
9 | CC1=C(C(=O)OC2CC(C)(C)N(C)C(C)(C)C2)CC(C(=O)OC2CC(C)(C)N(C)C(C)(C)C2)=C(C)N1 | 232
10 | COC(=O)c1sc(C(C)(C)C)cc1NC(=O)Nc1ccc(C)cc1 | 109 to 111
11 | C[Si](C)(C)C1([Si](C)(C)C)c2ccccc2-c2ccccc21 | 110 to 112
12 | Cc1cc(CNC(=O)c2cc(-c3ccc(C(C)(C)C)cc3)n(Cc3ccccc3)n2)ccc1OC(C)(C)C(=O)O | 88
13 | COC(=O)C1=C(CF)NC(C)=C(C(=O)OC(C)C)C1c1cccc(OC)c1OC (centres undefined) | 89 to 91
14 | CC1CC(N)=NN1c1ccccn1 (centres undefined) | 154 to 157
15 | Cc1cc(C)cc(N(CCCC(N)=O)Cc2ccc3nc(NCCCN4CCOCC4)n(Cc4cccc5cccnc45)c3c2)c1 | 154
16 | Oc1ccc2c(-c3nc4cc(O)ccc4o3)cccc2c1 | 232 to 234
17 | CCN(CC)Cc1cc(Nc2snc3ccccc23)ccc1O | 164 to 165
18 | COc1cc(-c2cnc3[nH]cc(C(=O)C(C)(C)C)c3n2)cc(OC)c1OC | 240 to 241
19 | CCCCC(C(=O)O)c1cccc(C(=O)c2cc3cc(C(=O)O)sc3s2)c1 (centres undefined) | 208
20 | COc1ccc2c(C)c(C)oc2c1C=O | 88
21 | CCCCC(C(N)=O)n1ccnc1 (centres undefined) | 90 to 91
22 | O=C(O)C(Cl)(Cl)CCCCCCCCCCC#Cc1ccccc1 | 155 to 157
23 | CCCCCCCCCCCC(C(=O)NN)C(C(=O)Nc1c(OC)cc(OC)cc1OC)c1ccccc1 (centres undefined) | 175 to 180
24 | CC(C)(C)OC(=O)Nc1ccc(C#Cc2nccs2)cc1[N+](=O)[O-] | 137
25 | CCCCN(Cc1ccc(-c2ccccc2-c2nnn[nH]2)cc1)c1ncccc1CNC(C)=O | 108 to 110
26 | CCCCCCCCCCCCCCc1ccc(O)c(C(=O)CCCCC)c1 | 41 to 42

Next, values leading:

Row | melting point [°C] | Structure (SMILES)
27 | 111 to 112 | CCC(=O)NCCC1=CCc2cnc3c(c21)CCO3
28 | > 250 | CNCC1Cc2cc(-c3ccccc3)cc(-c3cccc(F)c3)c2O1 (centres undefined)
29 | 130 | CCOc1ccccc1OCC1CN=C(N)O1 (centres undefined)
30 | 228 to 231 | COc1ccc2c(=O)n(S(=O)(=O)c3ccc(C)cc3)c(=O)[nH]c2c1
31 | 134 to 136 | C[C@@H]1Cc2ccsc2[C@H](C)N1CCCCNS(=O)(=O)c1ccc(NS(C)(=O)=O)cc1 (relative stereo)
32 | 192 | CC(=O)NC[C@H]1CN(c2ccc(N3CCC(n4nnnc4CS(C)(=O)=O)CC3)c(F)c2)C(=O)O1
33 | 238 to 240 | CCc1cc(=O)c2c([nH]1)CCOC2
34 | 178 to 179 | CCCc1c(OC(C)=O)cc2oc3cc(Cl)cn3c(=O)c2c1OC(C)=O
35 | 270 to 274 | CCCn1cc2c(C3C(=O)Nc4ccc(Br)cc43)nc(NCCN(C)C)nc2n1 (centres undefined)
36 | 160 to 162 | O=C1CCC(N2Cc3c(OCc4ccc(CSc5nc6ccccc6[nH]5)cc4)cccc3C2=O)C(=O)N1 (centres undefined)
37 | 68 to 69 | CC1Cc2c(F)cc(F)cc2C1=O (centres undefined)
38 | 91 to 92 | COC(=O)c1cc(Cl)cc2c1OCCN2C
39 | 189 to 192 | Cc1cc(Br)c2c(c1)/C(=N\NC(N)=O)C(=O)N2CCN(C(C)C)C(C)C
